Results taken from PMC3805035 (Proteins, 2010).

Tests used:
[1] = molecular target: T1, M. tuberculosis Rv3377c (halimadienyl diphosphate synthase) (Mycobacterium tuberculosis, UniProt O50406); assay type: biochemical
T1 sequence (O50406 1-501): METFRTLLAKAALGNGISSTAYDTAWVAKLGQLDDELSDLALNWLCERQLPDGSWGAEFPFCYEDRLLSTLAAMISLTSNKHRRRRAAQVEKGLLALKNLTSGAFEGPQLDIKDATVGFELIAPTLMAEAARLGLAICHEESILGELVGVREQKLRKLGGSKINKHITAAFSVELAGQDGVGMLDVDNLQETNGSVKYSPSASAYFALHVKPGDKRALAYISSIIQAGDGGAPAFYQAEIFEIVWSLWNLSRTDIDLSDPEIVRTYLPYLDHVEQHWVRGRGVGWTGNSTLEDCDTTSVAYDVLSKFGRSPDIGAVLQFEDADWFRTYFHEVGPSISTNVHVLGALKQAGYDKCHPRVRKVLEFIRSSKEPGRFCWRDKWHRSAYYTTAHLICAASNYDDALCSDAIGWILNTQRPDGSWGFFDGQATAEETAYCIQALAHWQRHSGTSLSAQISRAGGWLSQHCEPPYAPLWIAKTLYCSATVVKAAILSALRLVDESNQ

[2] = molecular target: T2, abietadiene synthase (AgABS) (Abies grandis, UniProt Q38710); assay type: biochemical
T2 sequence (Q38710 71-868): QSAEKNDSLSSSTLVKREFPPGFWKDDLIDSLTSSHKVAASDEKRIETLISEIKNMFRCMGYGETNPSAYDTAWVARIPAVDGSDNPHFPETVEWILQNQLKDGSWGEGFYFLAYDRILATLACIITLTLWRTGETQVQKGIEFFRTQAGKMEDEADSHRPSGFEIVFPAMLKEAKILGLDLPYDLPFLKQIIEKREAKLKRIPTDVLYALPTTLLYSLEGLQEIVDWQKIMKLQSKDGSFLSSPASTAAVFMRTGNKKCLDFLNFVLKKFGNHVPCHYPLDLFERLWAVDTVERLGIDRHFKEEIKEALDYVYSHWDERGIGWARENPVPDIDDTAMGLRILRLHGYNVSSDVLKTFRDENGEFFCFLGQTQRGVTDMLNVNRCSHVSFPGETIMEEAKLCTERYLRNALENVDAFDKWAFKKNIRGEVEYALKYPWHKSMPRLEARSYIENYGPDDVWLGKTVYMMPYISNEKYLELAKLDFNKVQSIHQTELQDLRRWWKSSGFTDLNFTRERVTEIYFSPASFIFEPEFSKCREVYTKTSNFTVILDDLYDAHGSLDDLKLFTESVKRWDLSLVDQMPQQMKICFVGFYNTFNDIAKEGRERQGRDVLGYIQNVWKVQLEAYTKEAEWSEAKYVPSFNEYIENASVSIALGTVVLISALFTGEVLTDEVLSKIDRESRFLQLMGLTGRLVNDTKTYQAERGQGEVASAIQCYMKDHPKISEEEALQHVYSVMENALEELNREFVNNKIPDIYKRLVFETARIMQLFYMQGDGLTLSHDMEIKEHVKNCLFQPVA

| SMILES | effect on ABS activity [2] | activity against the M. tuberculosis protein (Rv3377c) [1] | further results |
| --- | --- | --- | --- |
| C/C(=C\CC/C(C)=C/COP(=O)(O)OP(=O)(O)O)CC/C=C(\C)CCCN(C)C [15-aza-GGPP] |  |  | IC50 ([1]; read-out: Rv3377c inhibition (quantity not given)): 5 nM |
| CC(C)=CCCC(C)=CCCC(C)=CCC(P(=O)(O)O)P(=O)(O)O [BPH-850, farnesylmethylene bisphosphonate] |  |  | comparison of IC50 using GGPP or CPP as substrate, ABS ([2]; GGPP versus CPP as substrate): about the same IC50 |
| C=CCN(C)CCCCCCCCCCCCCCCC(=O)OC [BPH-922] |  |  | IC50 [2]: 250 nM |
| O=P(O)(O)C(O)(Cc1cnc2ccccn12)P(=O)(O)O [minodronate] | no effect | no activity |  |
| O=P(O)(O)C(O)(Cn1ccnc1)P(=O)(O)O [zoledronate] | no effect | no activity |  |
